This note sets out measurements from article PMC4148444, “P. aeruginosa SGNH Hydrolase-Like Proteins AlgJ and AlgX Have Similar Topology but Separate and Distinct Roles in Alginate Acetylation” (PLoS Pathogens, 2014).

One series deals with T1, PaAlgX27–474 (Pseudomonas aeruginosa, UniProt Q51372).
T1 construct: gene algX; residues 27-474 (mature protein, SGNH hydrolase-like domain plus C-terminal CBM)
Description: direct ESI-MS binding assay. Particulars: 50 mM ammonium acetate, pH 7, 298 K; corrected for nonspecific binding; site (active site or CBM) not resolved; read-out: Apparent K a (M^-1) AlgX. The source says: direct ESI-MS binding assay on PaAlgX27–474

The next series addresses T2, PaAlgJ79–379 (Pseudomonas aeruginosa, UniProt Q51393).
T2 construct: gene algJ; soluble periplasmic domain 79-379 without TM helix 12-29; N-terminal His6 thrombin-cleaved; expressed in E. coli BL21-CodonPlus; monomer by SEC
Description: direct ESI-MS binding assay. Particulars: 50 mM ammonium acetate, pH 7, 298 K; only folded (low charge state) fraction used, its concentration not accurately known; read-out: Apparent K a (M^-1) AlgJ. The source says:
direct ESI-MS binding assay on PaAlgJ79–379

In series [1] the test system is CC(=O)Oc1ccc2cc(C(=O)O)c(=O)oc2c1. The series is described as follows: purified protein. The note with it: up to 10% DMSO, kcat given as (×10^3 s^-1), kcat/Km implies ×10^-3, 25.0 °C.
Series [2] shares this test system. The series is described as follows: fluorescence acetylesterase assay. In kind it is biochemical, Pseudomonas putida. The note with it: 50 mM sodium HEPES pH 7.0, 298 K, up to 10% DMSO, kcat given as (×10^3 s^-1), kcat/Km implies ×10^-3, 25.0 °C. The source says: fluorescence acetylesterase assay on PpAlgJ75–370
[3] abbreviates: 50 mM sodium HEPES pH 7.0, 298 K.
[4] abbreviates: 50 mM sodium HEPES pH 8.0, 298 K.

T1 sequence (Q51372 27-474): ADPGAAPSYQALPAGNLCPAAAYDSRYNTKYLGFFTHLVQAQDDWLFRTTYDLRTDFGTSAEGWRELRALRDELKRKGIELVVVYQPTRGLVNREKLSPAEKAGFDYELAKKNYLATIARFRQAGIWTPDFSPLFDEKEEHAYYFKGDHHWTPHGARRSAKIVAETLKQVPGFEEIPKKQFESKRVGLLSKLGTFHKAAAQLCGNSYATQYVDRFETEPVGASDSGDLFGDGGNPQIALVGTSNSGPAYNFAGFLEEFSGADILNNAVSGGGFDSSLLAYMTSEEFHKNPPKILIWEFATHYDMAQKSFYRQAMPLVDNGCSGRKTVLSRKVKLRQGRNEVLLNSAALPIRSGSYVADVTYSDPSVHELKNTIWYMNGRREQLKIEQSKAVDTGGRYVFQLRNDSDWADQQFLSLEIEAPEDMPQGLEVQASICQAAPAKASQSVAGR
T2 sequence (Q51393 79-379): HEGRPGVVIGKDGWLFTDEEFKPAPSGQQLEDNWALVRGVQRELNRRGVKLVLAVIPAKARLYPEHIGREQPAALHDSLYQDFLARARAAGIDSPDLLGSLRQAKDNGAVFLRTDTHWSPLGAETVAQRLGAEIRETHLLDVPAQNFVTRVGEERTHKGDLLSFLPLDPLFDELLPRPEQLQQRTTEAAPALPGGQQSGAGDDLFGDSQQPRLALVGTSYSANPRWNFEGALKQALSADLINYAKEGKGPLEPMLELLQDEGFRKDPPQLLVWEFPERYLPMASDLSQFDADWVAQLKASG

As for `O=C(O)C1OC(OC2C(C(=O)O)OC(OC3C(C(=O)O)OC(OC4C(C(=O)O)OC(O)C(O)C4O)C(O)C3O)C(O)C2O)C(O)C(O)C1O` (stereo not shown) [ManA4], the Kd is 1000 µM at PaAlgX27–474 and more than 2000 µM on PaAlgJ79–379.
For `O=C(O)C1OC(OC2C(C(=O)O)OC(OC3C(C(=O)O)OC(OC4C(C(=O)O)OC(OC5C(C(=O)O)OC(O)C(O)C5O)C(O)C4O)C(O)C3O)C(O)C2O)C(O)C(O)C1O` (stereo not shown) [ManA5], in that order: 1000 µM and more than 2000 µM.
On the same counts, the results for `CCCO[C@@H]1O[C@H](C(=O)O)[C@@H](O[C@@H]2O[C@H](C(=O)O)[C@@H](O[C@@H]3O[C@H](C(=O)O)[C@@H](O[C@@H]4O[C@H](C(=O)O)[C@@H](O[C@@H]5O[C@H](C(=O)O)[C@@H](O[C@@H]6O[C@H](C(=O)O)[C@@H](O)[C@H](O)[C@@H]6O)[C@H](O)[C@@H]5O)[C@H](O)[C@@H]4O)[C@H](O)[C@@H]3O)[C@H](O)[C@@H]2O)[C@H](O)[C@@H]1O` [ManA6] are 312 µM and more than 2000 µM.
For ManA7, in that order: 208 µM and more than 2000 µM.
As for ManA8, the Kd on PaAlgX27–474 was 172 µM.
Same read-out and setting: the figure for ManA9 is 114 µM; for ManA10 it is 100 µM; for ManA11 it is 62.5 µM.
With ManA12, the Kd on PaAlgX27–474 came out at 52.6 µM.
What is called Km is the concentration of substrate that gives half-maximal velocity. The term kcat/Km denotes the second-order rate constant that governs catalysis at low substrate concentration. “PaAlgJ79–379 (Pseudomonas aeruginosa PAO1)”: in series [1] (setting [3]), the Km is 1160 ± 120 µM, the kcat is on record as 3.44±0.129 ×10^-3 s^-1 and the kcat/Km stood at 2.96 ± 0.324 M⁻¹ s⁻¹.
“PaAlgX27–474 (Pseudomonas aeruginosa PAO1)”: in series [1] (setting [4]), the Km was 1100 ± 96 µM, the kcat is on record as 11.4±0.343 ×10^-3 s^-1 and the kcat/Km amounted to 10.3 ± 0.961 M⁻¹ s⁻¹.
For “PpAlgJ75–370 (Pseudomonas putida KT2440)”, in series [2], the Km was 2300 ± 96.3 µM, the kcat is reported as 7.80±0.155 ×10^-3 s^-1 and the kcat/Km amounted to 3.39 ± 0.0688 M⁻¹ s⁻¹.
